Source: patent US9333172B2, “Topical skin care composition” (GALDERMA S.A., priority 2002, dated 2016)

Settings: in vivo

SMILES	Percutaneous absorption of unchanged drug into the systemic circulation	Number of subjects with quantifiable plasma concentrations (human, 8 weeks)	Subjects with quantifiable plasma concentrations (human, 8 weeks) [%]	Post-dose plasma concentrations
CC1=C(/C=C/C(C)=C/C=C/C(C)=C/C(=O)O)C(C)(C)CCC1 [tretinoin, (all-E)-3,7-dimethyl-9-(2,6,6-trimethyl-1-cyclohexen-1-yl)-2,4,6,8-nonatetraenoic acid]	minimal			
Oc1ccc(O)cc1 [hydroquinone, 1,4-benzenediol]	minimal	8	18	undetectably low
CC1(C)O[C@@H]2C[C@H]3[C@@H]4C[C@H](F)C5=CC(=O)C=C[C@]5(C)[C@@]4(F)[C@@H](O)C[C@]3(C)[C@]2(C(=O)CO)O1 [fluocinolone acetonide, (6,11,16)-6,9-difluoro-11,21-dihydroxy-16,17-[(1-methylethylidene)bis(oxy)]-pregna-1,-4-diene-3,20-dione]	minimal			undetectably low
